ChEMBL document CHEMBL1201862, “PubChem BioAssay data set” (2004)
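Growth conditions: 96-well plates. Treatment: test compound, 48 hours, 5 concentrations. Analysis: linear interpolation between bracketing concentrations; unreached endpoints set to highest concentration. GI50 marks 50% less growth.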 Calls of active or inactive are those of the source. No stated cut-off is given here; in the data, active = GI50 up to about 1.1 µM and inactive = higher.

What was measured:
Test in all cases: NCI-60 cell line screen, 48 h
A498 = system: A498
A549 = system: A549
ACHN = system: ACHN
COLO 205 = system: COLO 205
EKVX = system: EKVX
HCT-15 = system: HCT-15
MDA-N = system: MDA-N
PC-3 = system: PC-3
SK-MEL-2 = system: SK-MEL-2
SK-OV-3 = system: SK-OV-3
SN12C = system: SN12C
UACC-257 = system: UACC-257
KM12 = system: KM12
MOLT-4 = system: MOLT-4
NCI-H226 = system: NCI-H226
OVCAR-3 = system: OVCAR-3
SF-268 = system: SF-268
SNB-75 = system: SNB-75
SR = system: SR
T47D = system: T47D

SMILES	GI50 (A498)	GI50 (A549)	GI50 (ACHN)	GI50 (COLO 205)	GI50 (EKVX)	GI50 (HCT-15) [µM]	GI50 (MDA-N)	GI50 (PC-3)	GI50 (SK-MEL-2)	GI50 (SK-OV-3)	GI50 (SN12C)	GI50 (UACC-257)	GI50 (KM12)	GI50 (MOLT-4)	GI50 (NCI-H226)	GI50 (OVCAR-3)	GI50 (SF-268)	GI50 (SNB-75)	GI50 (SR)	GI50 (T47D)
Cc1cc(-c2cscn2)c(O)c([N+](=O)[O-])c1	28.7 µM (inactive)	46.6 µM (inactive)	37.2 µM (inactive)	28.3 µM (inactive)	65.8 µM (inactive)	38.4	74.3 µM (inactive)	41.4 µM (inactive)	85.1 µM (inactive)	16.1 µM (inactive)	45 µM (inactive)	63.8 µM (inactive)	–	–	–	–	–	–	–	–
O=C(NCCN1CCOCC1)c1cn2c(ccc3sc4ccccc4c(=O)c32)n1	17.3 µM (inactive)	4.62 µM (inactive)	5.36 µM (inactive)	7.24 µM (inactive)	> 100 µM (inactive)	10.3	28.3 µM (inactive)	20.1 µM (inactive)	–	–	13.1 µM (inactive)	34.6 µM (inactive)	> 100 µM (inactive)	3.3 µM (inactive)	32 µM (inactive)	> 100 µM (inactive)	12.3 µM (inactive)	24.8 µM (inactive)	9.73 µM (inactive)	–
COc1ccc(NC(=O)CC(=O)N2N=C(C)C(/N=N/c3ccc(C(=O)O)cc3)C2=O)cc1 (centres undefined)	> 100 µM (inactive)	> 100 µM (inactive)	> 100 µM (inactive)	> 100 µM (inactive)	> 100 µM (inactive)	> 100	> 100 µM (inactive)	> 100 µM (inactive)	> 100 µM (inactive)	–	> 100 µM (inactive)	> 100 µM (inactive)	71.8 µM (inactive)	–	–	> 100 µM (inactive)	> 100 µM (inactive)	77.3 µM (inactive)	–	> 100 µM (inactive)
O=C(CNc1ccc(Cl)cc1Cl)NC1C=Cc2ccc(S(=O)(=O)Nc3ccc(Cl)cc3Cl)cc2C1=O (centres undefined)	–	> 100 µM (inactive)	> 100 µM (inactive)	> 100 µM (inactive)	> 100 µM (inactive)	> 100	> 100 µM (inactive)	> 100 µM (inactive)	> 100 µM (inactive)	> 100 µM (inactive)	> 100 µM (inactive)	> 100 µM (inactive)	> 100 µM (inactive)	> 100 µM (inactive)	> 100 µM (inactive)	> 100 µM (inactive)	> 100 µM (inactive)	> 100 µM (inactive)	> 100 µM (inactive)	–
O=Cc1ccc2[nH]c(=O)oc2c1	> 100 µM (inactive)	–	> 100 µM (inactive)	> 100 µM (inactive)	> 100 µM (inactive)	> 100	> 100 µM (inactive)	> 100 µM (inactive)	> 100 µM (inactive)	> 100 µM (inactive)	> 100 µM (inactive)	> 100 µM (inactive)	> 100 µM (inactive)	60.4 µM (inactive)	> 100 µM (inactive)	> 100 µM (inactive)	> 100 µM (inactive)	–	39.7 µM (inactive)	–
CC(C)OCC(O)COc1ccc2ccc(=O)oc2c1 (centres undefined)	–	> 100 µM (inactive)	> 100 µM (inactive)	> 100 µM (inactive)	> 100 µM (inactive)	> 100	> 100 µM (inactive)	> 100 µM (inactive)	–	> 100 µM (inactive)	> 100 µM (inactive)	> 100 µM (inactive)	> 100 µM (inactive)	> 100 µM (inactive)	–	> 100 µM (inactive)	> 100 µM (inactive)	> 100 µM (inactive)	–	> 100 µM (inactive)
CC1=C(N2CC2)C(=O)c2ccccc2C1=O	–	0.566 µM (active)	0.257 µM (active)	0.762 µM (active)	0.136 µM (active)	1.05	–	0.897 µM (active)	1.54 µM (inactive)	2.52 µM (inactive)	0.312 µM (active)	0.327 µM (active)	1.13 µM (inactive)	1.11 µM (active)	2.06 µM (inactive)	1.12 µM (inactive)	0.359 µM (active)	0.462 µM (active)	0.117 µM (active)	13.1 µM (inactive)
CC(C)(C)/N=C1\C(=O)C2(C)CCC1C2(C)C (centres undefined)	16.4 µM (inactive)	> 100 µM (inactive)	> 100 µM (inactive)	> 100 µM (inactive)	> 100 µM (inactive)	> 100	–	> 100 µM (inactive)	> 100 µM (inactive)	> 100 µM (inactive)	–	> 100 µM (inactive)	> 100 µM (inactive)	–	> 100 µM (inactive)	> 100 µM (inactive)	> 100 µM (inactive)	–	> 100 µM (inactive)	> 100 µM (inactive)
CC(C)(C)/N=c1/n(C(C)(C)C)oc(=O)n1-c1ccccc1	> 50 µM (inactive)	> 50 µM (inactive)	> 50 µM (inactive)	> 50 µM (inactive)	> 50 µM (inactive)	> 50	> 50 µM (inactive)	> 50 µM (inactive)	> 50 µM (inactive)	> 50 µM (inactive)	> 50 µM (inactive)	> 50 µM (inactive)	> 50 µM (inactive)	> 50 µM (inactive)	> 50 µM (inactive)	> 50 µM (inactive)	> 50 µM (inactive)	35.6 µM (inactive)	> 50 µM (inactive)	–
